Experimental data as given in PMC12892976, “Alkylation-based optimization of antifungal FPPS inhibitors yields a potent, broad-spectrum lipophilic zoledronate derivative” (mBio, 2025).

Assays:
Aspergillus lentulus = experiment: MIC broth microdilution (CLSI); assay type: cell-based; settings: Aspergillus lentulus DTO 341-G7
Method: (§2) Antifungal susceptibility was determined by broth microdilution according to the CLSI guidelines described in M27-Ed4 ([16]).

Trichophyton tonsurans = experiment: checkerboard drug interaction (FICI, MICc); assay type: cell-based;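 further: simplified diagonal checkerboard screen combining antifungals with FPPS inhibitors, with FICI calculated under the Loewe additivity model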
Method: (§3) Drug interactions between antifungals and FPPS inhibitors were investigated using a simplified checkerboard diagonal screening method ([45]). […] FICIs were determined according to the Loewe additivity model ([17]).

Scedosporium apiospermum = experiment: MIC broth microdilution (CLSI); assay type: cell-based; settings: Scedosporium apiospermum 04-16-022-2268
Method: as §2

[1] = system: Cryptococcus bacillisporus; experiment: MIC broth microdilution (CLSI); assay type: cell-based; settings: Cryptococcus bacillisporus NIH179
Method: as §2

Epidermophyton floccosum = experiment: checkerboard drug interaction (FICI, MICc);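 further: simplified diagonal checkerboard screen pairing antifungals with FPPS inhibitors, FICI calculated under the Loewe additivity model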
Method: as §3

Aspergillus niger [2] = experiment: MIC broth microdilution (CLSI); assay type: cell-based; settings: Aspergillus niger 111
Method: as §2

[3] = system: Aspergillus frankstonensis; experiment: MIC broth microdilution (CLSI); assay type: cell-based; settings: Aspergillus frankstonensis DTO 341-F3
Method: as §2

Rhizopus oryzae = experiment: MIC broth microdilution (CLSI); assay type: cell-based; settings: Rhizopus oryzae 04-14-364-1703
Method: as §2

[4] = system: Cryptococcus deneoformans; experiment: checkerboard drug interaction (FICI, MICc); assay type: cell-based;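 further: simplified diagonal checkerboard screen pairing antifungals with FPPS inhibitors, FICI calculated under the Loewe additivity model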
Method: as §3

[5] = system: Saccharomyces cerevisiae biofilms; experiment: biofilm XTT reduction assay (SIC80, SFICI); assay type: cell-based; settings: for SICc / SFICI: Saccharomyces cerevisiae
Method: (§4) Biofilms of Cryptococcus were seeded in DMEM, and all other species were seeded in RPMI-1640.

[6] = system: Trichophyton interdigitale; experiment: MIC broth microdilution (CLSI); assay type: cell-based; settings: Trichophyton interdigitale R-234
Method: as §2

Cryptococcus gattii [7] = experiment: checkerboard drug interaction (FICI, MICc); assay type: cell-based;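 further: simplified diagonal checkerboard screen pairing antifungals with FPPS inhibitors, FICI computed under the Loewe additivity model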
Method: as §3

[8] = system: Trichophyton rubrum biofilms; experiment: biofilm XTT reduction assay (SIC80, SFICI); assay type: cell-based; settings: for SICc / SFICI: Trichophyton rubrum
Method: as §4

Pseudomonas aeruginosa = experiment: antibacterial MIC; assay type: cell-based
Excerpt: (§1) […]; Table S3). […]. […] […].

Streptococcus pyogenes = experiment: antibacterial MIC; assay type: cell-based
Excerpt: as §1

Salmonella Typhimurium = experiment: antibacterial MIC; assay type: cell-based; settings: Salmonella enterica
Excerpt: as §1

Cryptococcus gattii [9] = experiment: MIC broth microdilution (CLSI); assay type: cell-based; settings: Cryptococcus gattii PNG27
Method: as §2

Trichophyton soudanense = experiment: checkerboard drug interaction (FICI, MICc); assay type: cell-based;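 further: simplified diagonal checkerboard screen pairing antifungals with FPPS inhibitors, FICI computed under the Loewe additivity model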
Method: as §3

Fusarium solani = experiment: MIC broth microdilution (CLSI); settings: Fusarium solani 04-16-056-1862
Method: as §2

Aspergillus niger [10] = experiment: checkerboard drug interaction (FICI, MICc); assay type: cell-based;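 further: simplified diagonal checkerboard screen pairing antifungals with FPPS inhibitors, FICI calculated under the Loewe additivity model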
Method: as §3

CCCCCCCCCCn1cc[n+](CC(O)(P(=O)(O)O)P(=O)(O)O)c1 [10-ZOL, Decyl-zoledronate]
MIC / MEC (Aspergillus lentulus): 2 µg/mL
FICI (Trichophyton tonsurans; 5FC:10-ZOL): 2
FICI (Trichophyton tonsurans; AMB:10-ZOL): 2.92
FICI (Trichophyton tonsurans; CAS:10-ZOL): ≥4
FICI (Trichophyton tonsurans; FLC:10-ZOL): 0.52
bisphosphonate MICc (Trichophyton tonsurans; with 5FC): 1
bisphosphonate MICc (Trichophyton tonsurans; with AMB): 1
bisphosphonate MICc (Trichophyton tonsurans; with CAS): 1
bisphosphonate MICc (Trichophyton tonsurans; with FLC): 0.5
bisphosphonate MICc (Trichophyton tonsurans; with ITR): 1
bisphosphonate MICc (Trichophyton tonsurans; with KET): 0.25
bisphosphonate MICc (Trichophyton tonsurans; with VOR): 0.5
MIC / MEC (Scedosporium apiospermum): 4 µg/mL
MIC / MEC [1]: 2 µg/mL
FICI (Epidermophyton floccosum; 5FC:10-ZOL): 1.5
FICI (Epidermophyton floccosum; AMB:10-ZOL): 2
bisphosphonate MICc (Epidermophyton floccosum; with 5FC): 0.5
bisphosphonate MICc (Epidermophyton floccosum; with AMB): 0.5
bisphosphonate MICc (Epidermophyton floccosum; with CAS): 0.25
bisphosphonate MICc (Epidermophyton floccosum; with FLC): 0.25
bisphosphonate MICc (Epidermophyton floccosum; with ITR): 0.125
bisphosphonate MICc (Epidermophyton floccosum; with KET): 1
bisphosphonate MICc (Epidermophyton floccosum; with VOR): 0.25
MIC / MEC (Aspergillus niger [2]): 4 µg/mL
MIC / MEC [3]: 1 µg/mL
MIC / MEC (Rhizopus oryzae): 4 µg/mL
FICI ([4]; FLC:10-ZOL): 1
FICI ([4]; ITR:10-ZOL): 1.55
FICI ([4]; KET:10-ZOL): 0.61
FICI ([4]; VOR:10-ZOL): 1.3
bisphosphonate MICc ([4]; with 5FC): 0.5
bisphosphonate MICc ([4]; with AMB): 0.125
bisphosphonate MICc ([4]; with CAS): 1
bisphosphonate MICc ([4]; with FLC): 0.5
bisphosphonate MICc ([4]; with ITR): 0.5
bisphosphonate MICc ([4]; with KET): 0.125
bisphosphonate MICc ([4]; with VOR): 0.25
SICc ([5]; FLC:10-ZOL combination): 32 µg/mL
SFICI ([5]; FLC:10-ZOL): 0.75
SICc ([5]; ITR:10-ZOL combination): 32 µg/mL
SFICI ([5]; ITR:10-ZOL): 1.00
SICc ([5]; KET:10-ZOL combination): 8 µg/mL
SFICI ([5]; KET:10-ZOL): 0.63
SIC80 ([5]; agent alone, Saccharomyces cerevisiae S288c): 64 µg/mL
MIC / MEC [6]: 1 µg/mL
FICI (Cryptococcus gattii [7]; 5FC:10-ZOL): 1
FICI (Cryptococcus gattii [7]; CAS:10-ZOL): 0.5
FICI (Cryptococcus gattii [7]; FLC:10-ZOL): 1.5
FICI (Cryptococcus gattii [7]; KET:10-ZOL): 0.5
FICI (Cryptococcus gattii [7]; VOR:10-ZOL): 0.8
bisphosphonate MICc (Cryptococcus gattii [7]; with 5FC): 0.25
bisphosphonate MICc (Cryptococcus gattii [7]; with AMB): 0.125
bisphosphonate MICc (Cryptococcus gattii [7]; with CAS): 0.125
bisphosphonate MICc (Cryptococcus gattii [7]; with FLC): 0.5
bisphosphonate MICc (Cryptococcus gattii [7]; with ITR): 0.125
bisphosphonate MICc (Cryptococcus gattii [7]; with KET): 0.125
bisphosphonate MICc (Cryptococcus gattii [7]; with VOR): 0.125
FICI range (biofilm) ([8]; azoles with 10-ZOL, Trichophyton rubrum biofilms): 0.38–0.50
SICc ([8]; biofilm, FLC:10-ZOL combination): 16 µg/mL
SFICI ([8]; biofilm, FLC:10-ZOL): 0.38
SICc ([8]; biofilm, ITR:10-ZOL combination): 16 µg/mL
SFICI ([8]; biofilm, ITR:10-ZOL): 0.38
SICc ([8]; biofilm, KET:10-ZOL combination): 16 µg/mL
SFICI ([8]; biofilm, KET:10-ZOL): 0.50
SIC80 ([8]; biofilm, agent alone, Trichophyton rubrum 213): 64 µg/mL
MIC (Pseudomonas aeruginosa): > 16 µg/mL
MIC (Streptococcus pyogenes): 16 µg/mL
MIC (Salmonella Typhimurium): > 16 µg/mL
MIC / MEC (Cryptococcus gattii [9]): 0.5 µg/mL
FICI (Trichophyton soudanense; 5FC:10-ZOL): 2
FICI (Trichophyton soudanense; FLC:10-ZOL): 0.28
FICI (Trichophyton soudanense; VOR:10-ZOL): 0.61
bisphosphonate MICc (Trichophyton soudanense; with 5FC): 2
bisphosphonate MICc (Trichophyton soudanense; with AMB): 0.25
bisphosphonate MICc (Trichophyton soudanense; with CAS): 0.5
bisphosphonate MICc (Trichophyton soudanense; with FLC): 0.5
bisphosphonate MICc (Trichophyton soudanense; with ITR): 0.125
bisphosphonate MICc (Trichophyton soudanense; with KET): 1
bisphosphonate MICc (Trichophyton soudanense; with VOR): 0.25
MIC / MEC (Fusarium solani): 4 µg/mL
FICI (Aspergillus niger [10]; 5FC:10-ZOL): ≥4
FICI (Aspergillus niger [10]; AMB:10-ZOL): 2.17
